Earlier results as cited in patent US20170266293A1, “METHODS OF TREATING CANCERS WITH THERAPEUTIC NANOPARTICLES” (PFIZER INC., priority 2011, published 2017).

System: cholangiocarcinoma
Conditions: previous studies, Pazdur, Am. J. Clin. Oncol. 1999

## CC(=O)O[C@@]12CO[C@@H]1C[C@H](O)[C@@]1(C)C(=O)[C@H](O)C3=C(C)[C@@H](OC(=O)[C@H](O)[C@@H](NC(=O)OC(C)(C)C)c4ccccc4)C[C@@](O)([C@@H](OC(=O)c4ccccc4)[C@H]21)C3(C)C [docetaxel]
  Efficacy for the treatment of cholangiocarcinoma: ineffective
